Assay results as given in ChEMBL document CHEMBL2203016, “Purpuroines A-J, halogenated alkaloids from the sponge Iotrochota purpurea with antibiotic activity and regulation of tyrosine kinases” (Bioorg Med Chem, 2012).
Values after ≈ are worked out from the molar mass of the structure shown. Active and inactive are the calls of the source. No cut-off for these calls is given here.

Assays:
Saccharomyces cerevisiae = assay: Antimicrobial activity against Saccharomyces cerevisiae by microplate reader analysis; assay type: functional, organism-based
Fusarium oxysporum = assay: Antimicrobial activity against Fusarium oxysporum by microplate reader analysis; assay type: functional, organism-based
Staphylococcus aureus = assay: Antimicrobial activity against Staphylococcus aureus by microplate reader analysis; assay type: functional, organism-based
Escherichia coli = assay: Antimicrobial activity against Escherichia coli by microplate reader analysis; assay type: functional, organism-based
Pseudomonas aeruginosa = assay: Antimicrobial activity against Pseudomonas aeruginosa by microplate reader analysis; assay type: functional, organism-based
Aspergillus fumigatus [1] = assay: Antimicrobial activity against Aspergillus fumigatus at 20 ug/ml by microplate reader analysis; assay type: functional, organism-based
Aspergillus flavus = assay: Antimicrobial activity against Aspergillus flavus by microplate reader analysis; assay type: functional, organism-based
Streptococcus pneumoniae [2] = assay: Antimicrobial activity against Streptococcus pneumoniae at 20 ug/ml by microplate reader analysis; assay type: functional, organism-based
Candida albicans [3] = assay: Antimicrobial activity against Candida albicans at 20 ug/ml by microplate reader analysis; assay type: functional, organism-based
Candida albicans [4] = assay: Antimicrobial activity against Candida albicans by microplate reader analysis; assay type: functional, organism-based
Aspergillus fumigatus [5] = assay: Antimicrobial activity against Aspergillus fumigatus by microplate reader analysis; assay type: functional, organism-based
Streptococcus pneumoniae [6] = assay: Antimicrobial activity against Streptococcus pneumoniae by microplate reader analysis; assay type: functional, organism-based
[7] = biological target: Tyrosine-protein kinase Lck (Homo sapiens, UniProt P06239); assay: Inhibition of LCK
Chain of Tyrosine-protein kinase Lck (P06239 whole entry): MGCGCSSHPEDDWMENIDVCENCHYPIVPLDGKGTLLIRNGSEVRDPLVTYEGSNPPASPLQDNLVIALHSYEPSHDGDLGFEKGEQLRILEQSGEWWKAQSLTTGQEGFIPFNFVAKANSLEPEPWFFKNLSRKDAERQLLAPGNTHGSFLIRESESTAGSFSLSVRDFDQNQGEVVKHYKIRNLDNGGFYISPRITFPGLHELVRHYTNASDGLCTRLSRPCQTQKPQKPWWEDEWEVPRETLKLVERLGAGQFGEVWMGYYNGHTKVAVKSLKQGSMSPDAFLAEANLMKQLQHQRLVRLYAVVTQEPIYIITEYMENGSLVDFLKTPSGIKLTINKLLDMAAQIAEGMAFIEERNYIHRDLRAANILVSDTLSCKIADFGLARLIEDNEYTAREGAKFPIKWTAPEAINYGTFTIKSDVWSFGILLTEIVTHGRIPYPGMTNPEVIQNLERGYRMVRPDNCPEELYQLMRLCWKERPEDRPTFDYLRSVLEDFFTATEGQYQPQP

[8] = biological target: Cyclin-dependent kinase 2 (Homo sapiens, UniProt P24941); assay: Inhibition of CDK2
[9] = biological target: Serine/threonine-protein kinase PLK1 (Homo sapiens, UniProt P53350); assay: Inhibition of PLK1
Chain of Serine/threonine-protein kinase PLK1 (P53350 whole entry): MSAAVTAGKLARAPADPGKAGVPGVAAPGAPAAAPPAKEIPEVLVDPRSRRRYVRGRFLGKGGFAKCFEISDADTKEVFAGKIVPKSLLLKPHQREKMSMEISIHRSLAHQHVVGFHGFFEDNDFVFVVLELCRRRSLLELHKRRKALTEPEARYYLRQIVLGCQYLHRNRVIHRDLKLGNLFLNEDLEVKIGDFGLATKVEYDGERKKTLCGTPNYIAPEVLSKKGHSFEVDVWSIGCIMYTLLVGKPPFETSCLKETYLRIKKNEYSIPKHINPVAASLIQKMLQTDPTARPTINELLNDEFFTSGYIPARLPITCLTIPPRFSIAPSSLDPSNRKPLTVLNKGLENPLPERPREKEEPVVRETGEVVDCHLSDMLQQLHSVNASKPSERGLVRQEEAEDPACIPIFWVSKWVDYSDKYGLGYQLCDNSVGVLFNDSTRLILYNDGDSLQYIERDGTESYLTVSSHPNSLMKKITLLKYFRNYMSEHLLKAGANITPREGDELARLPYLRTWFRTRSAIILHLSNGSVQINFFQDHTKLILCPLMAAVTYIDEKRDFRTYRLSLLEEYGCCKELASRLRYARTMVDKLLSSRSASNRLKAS

[10] = Candida albicans, read-out: IC50
[11] = Aspergillus fumigatus, read-out: IC50
[12] = Streptococcus pneumoniae, read-out: IC50

| IC50 (Candida albicans [4]; [10]) | IC50 (Aspergillus fumigatus [5]; [11]) | IC50 (Streptococcus pneumoniae [6]; [12]) | IC50 (Candida albicans [4]) | IC50 [7] | IC50 (Streptococcus pneumoniae [6]) | IC50 [8] | IC50 [9] | IC50 (Aspergillus fumigatus [5]) | Structure (SMILES) | Activity (Saccharomyces cerevisiae) | Activity (Fusarium oxysporum) | Activity (Staphylococcus aureus) | Activity (Escherichia coli) | Activity (Pseudomonas aeruginosa) | Activity (Aspergillus fumigatus [1]) | Activity (Aspergillus flavus) | Activity (Streptococcus pneumoniae [2]) | Activity (Candida albicans [3]) |
| --- | --- | --- | --- | --- | --- | --- | --- | --- | --- | --- | --- | --- | --- | --- | --- | --- | --- | --- |
| – | – | – | – | – | – | – | – | – | C[N+](C)(C)[C@H](CCOc1c(Cl)cc(Br)cc1Br)C(=O)[O-] | Active | Active | Active | Active | Active | inactive | Active | inactive | inactive |
| – | – | – | – | – | – | – | – | – | COC(=O)[C@@H](Cc1c[nH]c2cc(Br)ccc12)[N+](C)(C)C (racemic) | Active | Active | Active | Active | Active | inactive | Active | inactive | inactive |
| 4.26 µg/mL (≈ 4.61 µM) | 3.27 µg/mL (≈ 3.54 µM) | – | – | – | – | – | – | – | C[C@@H]1[C@H](O)[C@@H](C)/C=C/C=C/C=C/C=C/C=C/C=C/C=C/[C@H](O[C@@H]2O[C@H](C)[C@@H](O)[C@H](N)[C@@H]2O)C[C@@H]2O[C@](O)(C[C@@H](O)C[C@@H](O)[C@H](O)CC[C@@H](O)C[C@@H](O)CC(=O)O[C@H]1C)C[C@H](O)[C@H]2C(=O)O [AMPHOTERICIN B] | – | – | – | – | – | – | – | – | – |
| – | – | 0.38 µg/mL (≈ 1.09 µM) | – | – | – | – | – | – | CC1(C)S[C@@H]2[C@H](NC(=O)[C@H](N)c3ccccc3)C(=O)N2[C@H]1C(=O)O [AMPICILLIN] | – | – | – | – | – | – | – | – | – |
| – | 28.6 µg/mL (≈ 60.3 µM) | – | Not Active | 4.96 µM | Not Active | > 105 µM | > 105 µM | – | C[N+](C)(C)[C@H](CCOc1c(Br)cc(Br)cc1Br)C(=O)[O-] [PURPUROINE A] | – | – | – | – | – | – | – | – | – |
| – | – | – | – | 32.3 µM | – | > 127 µM | > 127 µM | – | C[N+](C)(C)[C@H](CCOc1ccc(Br)cc1Br)C(=O)[O-] [PURPUROINE B] | Active | Active | Active | Active | Active | inactive | Active | inactive | inactive |
| – | 26.1 µg/mL (≈ 67.7 µM) | – | Not Active | 11.7 µM | Not Active | > 130 µM | 17.8 µM | – | C[N+](C)(C)[C@H](CCOc1c(Cl)cc(Br)cc1Cl)C(=O)[O-] [PURPUROINE C] | – | – | – | – | – | – | – | – | – |
| 19 µg/mL (≈ 36.5 µM) | 25.6 µg/mL (≈ 49.1 µM) | – | – | 1.8 µM | Not Active | > 96 µM | 2.78 µM | – | C[N+](C)(C)[C@H](CCOc1c(Br)cc(Br)cc1I)C(=O)[O-] [PURPUROINE D] | – | – | – | – | – | – | – | – | – |
| – | – | – | – | 14.7 µM | – | > 102 µM | 9.24 µM | – | COc1c(I)cc(C[C@H](C(=O)[O-])[N+](C)(C)C)cc1I [PURPUROINE F] | Active | Active | Active | Active | Active | inactive | Active | inactive | inactive |
| – | – | – | – | 25 µM | – | > 105 µM | 21.2 µM | – | C[N+](C)(C)[C@H](Cc1cc(I)c(O)c(I)c1)C(=O)[O-] [PURPUROINE G] | Active | Active | Active | Active | Active | inactive | Active | inactive | inactive |
| – | – | – | – | 17.9 µM | – | > 113 µM | 17.1 µM | – | COc1c(Br)cc(C[C@H](C(=O)[O-])[N+](C)(C)C)cc1I [PURPUROINE H] | – | – | – | – | – | – | – | – | – |
| – | – | 18.1 µg/mL (≈ 42.2 µM) | Not Active | > 117 µM | – | > 117 µM | > 117 µM | Not Active | C[N+](C)(C)[C@H](Cc1cc(Br)c(O)c(I)c1)C(=O)[O-] [PURPUROINE I] | – | – | – | – | – | inactive | – | inactive | inactive |
